system: papillomata; experiment: Anti-cancer activity: mouse skin papilloma test (7,12-dimethylbenzanthracene / croton oil induced); assay type: in vivo, mouse (ICR strain, female); settings: administered orally as 20 mg/ml solution in groundnut oil, 10 times for 14 days; total diameter on the 14th day vs. prior to administration
Description: A mouse (ICR strain, female, 50 days age) was shaved at the back of neck (to the extent of 5 cm^2). 7,12-Dimethylbenzo-[2]-anthracene was dissolved in acetone to give-75 mg /100 ml. solution. The so prepared solution was applied to the mouse on the 60th day of age and further on the 75th day of aqe in the amount of 0.2 ml per mouse.
Croton oil was dissolved in acetone to give 250 mg/ 100 ml solution, and the so prepared solution was applied to the mouse in the amount of 0.2 ml per mouse,-twice a week until the treatment was started. When 3 - 7 papillomata (diamether of 3 - 8 mm for each, and total diameter of 30 - 60 mm ) were produced for a mouse, the treatment was started.
The compound to be tested (test compound) was dissolved in groundnut oil to give 20' mg /ml solution, and administered orally to the mouse. The solution was administered 10 times for 14 days (once a day), and the diameters of the papillomata were measured on the 14th day to determine the total diameter for each mouse. Ratio of increase or decrease of the papillomata was calculated from the total diameter on the 14th day and the total diameter measured prior to the starting of administration of the test compound. This value was adopted' for evaluating the anti-cancer activity.

Structure (SMILES) | Ratio of increase or decrease of papillomas(%)
CC(C)=CCCC(C)=CCCC(C)=CCCC(C)=CC=CC(C)=CC(=O)O [(1), 3,7,11,15,19-pentamethyl-2,4,6,10,14,18-eicosahexa-enoic acid] | −24.0
CC(C)=CCCC(C)CCCC(C)=CC=CC(C)=CC(=O)O (stereo not drawn) [(2), 3,7,11,15-tetramethyl-2,4,6,14-hexadecatetraenoic acid] | −19.5
CCOC(=O)C=C(C)C=CC=C(C)CCCC(C)CCC=C(C)C (stereo not drawn) [(3), ethyl 3,7,11,15-tetramethyl-2,4,6,14-hexadecatetra-enoate] | −10.2
CC(C)=CCCC(C)=CC=CC(C)=CC=CC(C)=CC(=O)O [(4), 3,7,11,15-tetramethyl-2,4,6,8,10,14-hexadecahexaeno-ic acid] | −26.3
CC(C)=CCCC(C)=CCCC(C)=CC=CC(C)=CC(N)=O [(5), 3,7,11,15-tetramethyl-2,4,6,10,14-hexadecapentaeno-amide] | −25.5
CCOC(=O)C=C(C)C=CC=C(C)CCC=C(C)CCC=C(C)C [(6), ethyl 3,7,11,15-tetramethyl-2,4,6,10,14-hexadeca-pentaenoate] | −17.5
CC(=O)C=CC=C(C)CCC=C(C)CCC=C(C)CCC=C(C)C [(7), 6,10,14,18-tetramethyl-3,5,9,13,17-nonadecapentaen-2-on] | −12.7
CC(C)=CCCC(C)=CCCC(C)=CCCC(C)=CC(=O)O [(8), 3,7,11,15-tetramethyl-2,6,10,14-hexadecatetraenoic acid] | −6.5
CC(=O)CCC=C(C)CCC=C(C)CCC=C(C)CCC=C(C)C [(9), 6,10,14,18-tetramethyl-5,9,13,17-nonadecatetraen-2-on] | −8.2

Source: patent publication EP0059258A1, “Pharmaceutical preparations comprising polyprenyl compounds, especially as anti-cancer agents, and pharmaceutical compositions for the prevention and treatment of cancer and skin diseases” (Eisai Co., Ltd., priority 1980, dated 1982)
